From paper PMC10349193 (CPT: Pharmacometrics & Systems Pharmacology, 2023)
Like-named read-outs stand apart in the source and are kept apart here. Blank lines part the entries; values can stand above or below the compound they belong to.

Tests used:
Caco-2 = details: ref SimCYP library version 19, cited from earlier work
CYP3A4 [1] = tested on: CYP3A4; set-up: method as in SimCYP library version 19; details: ref SimCYP library version 19; cited from earlier work
[2] = model input; ref SimCYP library version 19; cited from earlier work
[3] = ref SimCYP library version 19, cited from earlier work
[4] = set-up: method as in SimCYP library version 19; details: ref SimCYP library version 19; cited from earlier work
[5] = model input; ref SimCYP library version 19; cited from earlier work; remark: listed apart in the source
CYP3A4 [6] = details: cited from earlier work
CYP2C9 = details: read-out: CYP2C9 Ki; competitive inhibition; ref SimCYP library version 19; cited from earlier work
CYP1A2 [7] = details: read-out: CYP1A2 Ki; competitive inhibition; ref SimCYP library version 19; cited from earlier work
CYP2C19 = details: read-out: CYP2C19 Ki; competitive inhibition; ref SimCYP library version 19; cited from earlier work
CYP2D6 = details: read-out: CYP2D6 Ki; competitive inhibition; ref SimCYP library version 19; cited from earlier work
[8] = Apparent permeability in Caco-2 monolayers; type: in vitro ADME; details: human
Caco‐2 monolayers = experiment: Apparent permeability in Caco-2 monolayers; type: in vitro ADME; details: Caco‐2, 10 μM, 2 h
MDCK II = details: fluvoxamine file with reference compounds; ref SimCYP library version 19; cited from earlier work
P-gp [9] = tested on: T1, P-gp; experiment: P-gp substrate assessment in Caco-2 monolayers with verapamil; type: in vitro ADME; details: human, Caco-2, with verapamil (concentration not stated)
T1 construct: endogenous in cells; host or cells: Caco-2

P-gp [10] = biological target: T2, P-gp (Homo sapiens, UniProt P08183); experiment: as above; type: in vitro ADME; details: Caco-2, with verapamil (concentration not stated), read-out: Efflux ratio P app,BL→AP/AP→BL, with inhibitor
T2 construct: endogenous in cells; host or cells: Caco-2

CYP2C8 [11] = tested on: CYP2C8; set-up: method as in SimCYP library version 19; details: ref SimCYP library version 19, cited from earlier work
[12] = model input; ref SimCYP library version 19; cited from earlier work; remark: listed apart in the source
CYP2C8 [13] = tested on: CYP2C8; set-up: method as in SimCYP library version 19; details: ref SimCYP library version 19; cited from earlier work
CYP1A2 [14] = tested on: CYP1A2; set-up: method as in SimCYP library version 19; details: ref SimCYP library version 19; cited from earlier work
CYP2B6 = tested on: CYP2B6; set-up: method as in SimCYP library version 19; details: ref SimCYP library version 19, cited from earlier work
[15] = pH 7.4: pH 7.4, Passive&Active, erythromycin file with reference compounds

T2 sequence (P08183 whole entry): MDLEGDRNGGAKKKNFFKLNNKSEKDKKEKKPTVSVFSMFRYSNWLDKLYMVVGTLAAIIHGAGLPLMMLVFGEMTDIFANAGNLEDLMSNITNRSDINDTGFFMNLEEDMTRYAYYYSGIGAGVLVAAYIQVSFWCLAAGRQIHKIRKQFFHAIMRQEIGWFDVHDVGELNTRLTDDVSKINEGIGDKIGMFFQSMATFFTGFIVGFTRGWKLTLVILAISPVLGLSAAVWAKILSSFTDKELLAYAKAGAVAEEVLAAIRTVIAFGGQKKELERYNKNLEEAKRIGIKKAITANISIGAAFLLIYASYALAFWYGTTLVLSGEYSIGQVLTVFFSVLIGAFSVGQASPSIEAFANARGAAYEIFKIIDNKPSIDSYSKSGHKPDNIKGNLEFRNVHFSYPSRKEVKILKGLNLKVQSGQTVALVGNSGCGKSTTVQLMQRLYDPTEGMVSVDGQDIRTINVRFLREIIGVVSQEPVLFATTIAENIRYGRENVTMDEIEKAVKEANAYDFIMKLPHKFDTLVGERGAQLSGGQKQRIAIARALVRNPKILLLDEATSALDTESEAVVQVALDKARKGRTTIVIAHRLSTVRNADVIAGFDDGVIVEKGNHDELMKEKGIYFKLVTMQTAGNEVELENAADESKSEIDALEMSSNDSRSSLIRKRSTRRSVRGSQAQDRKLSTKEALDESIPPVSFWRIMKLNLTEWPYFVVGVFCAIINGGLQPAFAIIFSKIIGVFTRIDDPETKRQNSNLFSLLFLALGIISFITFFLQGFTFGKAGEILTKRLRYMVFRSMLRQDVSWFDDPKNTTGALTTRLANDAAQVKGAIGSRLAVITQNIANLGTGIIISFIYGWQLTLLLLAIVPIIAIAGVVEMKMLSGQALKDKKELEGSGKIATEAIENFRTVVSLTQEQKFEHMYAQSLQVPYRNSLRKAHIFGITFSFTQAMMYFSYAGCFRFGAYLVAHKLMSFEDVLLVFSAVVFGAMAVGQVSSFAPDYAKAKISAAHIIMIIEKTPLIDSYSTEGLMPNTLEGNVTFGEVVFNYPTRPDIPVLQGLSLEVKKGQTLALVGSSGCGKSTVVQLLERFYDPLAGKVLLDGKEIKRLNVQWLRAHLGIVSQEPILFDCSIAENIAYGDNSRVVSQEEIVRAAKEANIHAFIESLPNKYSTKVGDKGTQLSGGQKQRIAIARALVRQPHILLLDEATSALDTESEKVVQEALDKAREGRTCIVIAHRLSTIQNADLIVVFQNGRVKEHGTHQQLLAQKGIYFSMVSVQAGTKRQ

Compound: CC[C@H]1OC(=O)[C@H](C)[C@@H](O[C@H]2C[C@@](C)(OC)[C@@H](O)[C@H](C)O2)[C@H](C)[C@@H](O[C@@H]2O[C@H](C)C[C@H](N(C)C)[C@H]2O)[C@](C)(O)C[C@@H](C)C(=O)[C@H](C)[C@@H](O)[C@]1(C)O [Erythromycin]
Caco-2 Papp (Caco-2; [15]): 1.7 10^-6 cm/s
CYP3A4 Kapp (CYP3A4 [1]): 23.2 µM
Fraction unbound in plasma [2]: 0.31
Vss ([3]; minimal PBPK model): 0.75/30 L/kg
Volume [Vsac] ([3]; single adjusting compartment): 1e-05 L/kg
kin ([3]; single adjusting compartment): 0 h⁻¹
kout ([3]; single adjusting compartment): 0 h⁻¹
CLR [4]: 3.13 L/h

Compound: COCCCC/C(=N\OCCN)c1ccc(C(F)(F)F)cc1 [Fluvoxamine]
pKa 1 [5]: 8.7
Ki (CYP2C9): 126 nM
Ki (CYP1A2 [7]): 2 nM
Ki (CYP2C19): 6 nM
Ki (CYP2D6): 189 nM

Papp at 2 h ([8]; Caco-2, Apical pH : Basolateral pH 7.4 : 7.4, source Measured, read-out: Caco-2 permeability (model input)): 29.4 ×10⁻⁶ cm/s
Papp B→A at 2 h, 10 μM ([8]; Caco‐2, 10 μM, 2 h, read-out: P app,BL→AP, without inhibitor): 23.1 ×10⁻⁶ cm/s
efflux ratio at 2 h, 10 μM ([8]; Caco‐2, 10 μM, read-out: Efflux ratio P app,BL→AP/AP→BL, without inhibitor): 0.785
P app,AP→BL, without inhibitor (Caco‐2 monolayers): 29.4 10^−6 cm/s
Papp A→B at 2 h, 10 μM (P-gp [9]; read-out: P app,AP→BL, with inhibitor): 57.4 ×10⁻⁶ cm/s
Papp B→A at 2 h, 10 μM (P-gp [9]; read-out: P app,BL→AP, with inhibitor): 21.9 ×10⁻⁶ cm/s
efflux ratio at 2 h, 10 μM (P-gp [10]): 0.382
Compound: CC(C)NCC(O)COc1cccc2ccccc12 (centres unmarked) [Propranolol]
Reference compound Papp (Caco-2; Caco-2 pH 6.5: pH 7.4, references of fluconazole file, unit not given): 27.5
Caco-2 Papp (Caco-2; pH 6.5: pH 7.4, Passive, rifampicin file with reference compound): 21.15 10^-6 cm/s
Caco-2 Papp (Caco-2; [15]): 147 10^-6 cm/s
MDCK II Papp (MDCK II): 40.3 10^-6 cm/s

Compound: CO[C@H]1/C=C/O[C@@]2(C)Oc3c(C)c(O)c4c(O)c(c(/C=N/N5CCN(C)CC5)c(O)c4c3C2=O)NC(=O)/C(C)=C\C=C\[C@H](C)[C@H](O)[C@@H](C)[C@@H](O)[C@@H](C)[C@H](OC(C)=O)[C@@H]1C [Rifampicin]
Log P [5]: 4.01
pKa 1 [5]: 1.7
pKa 2 [5]: 7.9
EC50 (CYP2C8 [11]; induction, read-out: CYP2C8 IndC50): 300 nM
fuinc (CYP2C8 induction) (CYP2C8 [11]): 1
Lag time [12]: 0/30 h
QGut [12]: 9.42/30
fuGut [12]: 0.14
Fraction unbound in plasma [2]: 0.116
kin ([3]; single adjusting compartment): 0 h⁻¹
kout ([3]; single adjusting compartment): 0 h⁻¹
fumic (CYP2C8 inhibition) (CYP2C8 [13]): 1
fuinc (CYP1A2 induction) (CYP1A2 [14]): 1
EC50 (CYP2B6; induction, read-out: CYP2B6 IndC50): 70 nM
fuinc (CYP2B6 induction) (CYP2B6): 1
CLR [4]: 1.26 L/h
